Measurements from US7560468B2, “Substituted 1,4,8-triazaspiro[4,5]decan-2-one compounds” (Gruenenthal GmbH, priority 2004, dated 2009).

What was measured:
[1] = test system: NA transporter; test: Inhibition of noradrenalin uptake in synaptosomes; format: biochemical
[2] = test system: batrachotoxin (BTX) binding site of the sodium channel; test: Affinity to the batrachotoxin (BTX) binding site of the sodium channel; settings: rat cerebrocortex synaptosomes, [3H]-batrachotoxinin A20 α-benzoate 10 nM; test concentration not given
[3] = target: T1, 5-HT transporter (Rattus norvegicus, UniProt P31652); test: Inhibition of 5-HT uptake in synaptosomes; format: biochemical; settings: for inhibition at 1 µM: read-out: Uptake_5-HT, rat, 1 μM, % inhibition
T1 construct: from tissue; host or cells: rat brain synaptosomes (marrow/medulla and pons), P2 fraction
T1 sequence (P31652 whole entry): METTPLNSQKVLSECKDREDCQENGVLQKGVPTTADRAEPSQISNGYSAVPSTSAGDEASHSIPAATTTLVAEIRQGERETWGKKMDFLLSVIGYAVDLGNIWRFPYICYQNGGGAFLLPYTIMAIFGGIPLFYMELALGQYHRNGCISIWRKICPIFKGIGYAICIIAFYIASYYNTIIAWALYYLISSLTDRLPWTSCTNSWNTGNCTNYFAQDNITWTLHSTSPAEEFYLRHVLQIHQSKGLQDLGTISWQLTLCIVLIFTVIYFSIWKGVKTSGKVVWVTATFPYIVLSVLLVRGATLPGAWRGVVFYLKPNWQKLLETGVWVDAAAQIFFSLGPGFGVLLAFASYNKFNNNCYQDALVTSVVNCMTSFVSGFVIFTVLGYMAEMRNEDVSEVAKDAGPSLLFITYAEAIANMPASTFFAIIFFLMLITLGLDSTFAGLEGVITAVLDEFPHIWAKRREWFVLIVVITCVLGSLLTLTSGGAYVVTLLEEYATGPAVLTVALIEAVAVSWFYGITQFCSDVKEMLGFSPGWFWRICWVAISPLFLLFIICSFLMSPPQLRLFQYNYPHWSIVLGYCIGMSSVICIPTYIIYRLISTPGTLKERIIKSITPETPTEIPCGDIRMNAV

COc1cc(C)c(S(=O)(=O)N2CCC3(CC2)NC(=O)C(Cc2ccccc2)N3)c(C)c1C (stereo not drawn) [Example 4, 3-Benzyl-8-(4-methoxy-2,3,6-trimethylbenzolsulfonyl)-1,4,8-triazaspiro[4,5]decan-2-one]
Uptake (NA), rat, 10 μM, % inhibition [1]: 34%
BTX Inhibition [2]: 53

CN(C)S(=O)(=O)N1CCC2(CC1)NCC(=O)N2Cc1ccccc1 [Example 9, 1-Benzyl-2-oxo-1,4,8-triazaspiro[4,5]decan-8-sulfonic acid dimethylamide]
Uptake (NA), rat, 10 μM, % inhibition [1]: 40%

CCOC(=O)CC(C)NC(=S)N1CCC2(CC1)NC(Cc1ccccc1)C(=O)N2C (stereo not drawn) [Example 131, Ethyl 3-[(3-benzyl-1-methyl-2-oxo-1,4,8-triazaspiro[4,5]decan-8-carbothioyl)amino]-butyrate]
Uptake (NA), rat, 10 μM, % inhibition [1]: 42%
BTX Inhibition [2]: 42

COC(=O)c1ccc(CN2C(=O)C(C(C)C)NC23CCN(C(=S)NCC2CCCO2)CC3)cc1 (stereo not drawn) [Example 137, Methyl 4-{3-isopropyl-2-oxo-8-[(tetrahydrofuran-2-ylmethyl)thiocarbamoyl]-1,4,8-triazaspiro[4,5]dec-1-ylmethyl}-benzoate]
Uptake (NA), rat, 10 μM, % inhibition [1]: 30%
BTX Inhibition [2]: 37

CCCCN1C(=O)C(C(C)C)NC12CCN(C(=S)Nc1c(F)c(F)c(F)c(F)c1F)CC2 (stereo not drawn) [Example 152, 1-Butyl-3-isopropyl-2-oxo-1,4,8-triazaspiro[4,5]decan-8-thiocarboxylic acid pentafluorobenzolamide-amide]
Uptake (NA), rat, 10 μM, % inhibition [1]: 37%
BTX Inhibition [2]: 39

CC(C)C1NC2(CCN(C(=S)Nc3ccccc3)CC2)N(Cc2ccccc2)C1=O (stereo not drawn) [Example 156, 1-Benzyl-3-isopropyl-2-oxo-1,4,8-triazaspiro[4,5]decan-8-thiocarboxylic acid benzolamide]
Uptake (NA), rat, 10 μM, % inhibition [1]: 33%

C=CCN1C(=O)C(C(C)C)NC12CCN(C(=S)NCc1ccc(F)cc1)CC2 (stereo not drawn) [Example 162, 1-Allyl-3-isopropyl-2-oxo-1,4,8-triazaspiro[4,5]decan-8-thiocarboxylic acid 4-fluorobenzylamide]
Uptake (NA), rat, 10 μM, % inhibition [1]: 26%

CCOC(=O)NC(=S)N1CCC2(CC1)NC(C(C)C)C(=O)N2Cc1ccc(C(=O)OC)cc1 (stereo not drawn) [Example 167, Methyl 4-(8-ethoxycarbonylaminocarbothioyl-3-isopropyl-2-oxo-1,4,8-triazaspiro[4,5]dec-1-ylmethyl)benzoate]
Uptake (NA), rat, 10 μM, % inhibition [1]: 42%

CSCCC1NC2(CCN(C(=S)Nc3ccccc3C)CC2)N(Cc2ccc(F)cc2)C1=O (stereo not drawn) [Example 186, 1-(4-Fluorobenzyl)-3-(2-methylsulfanylethyl)-2-oxo-1,4,8-triazaspiro[4,5]decan-8-thiocarboxylic acid o-tolylamide]
BTX Inhibition [2]: 52
inhibition at 1 µM [3]: 55%

CSCCC1NC2(CCN(C(=S)Nc3cccc(C#N)c3)CC2)N(Cc2ccc(F)cc2)C1=O (stereo not drawn) [Example 192, 1-(4-Fluorobenzyl)-3-(2-methylsulfanylethyl)-2-oxo-1,4,8-triazaspiro[4,5]decan-8-thiocarboxylic acid (3-cyanobenzol)amide]
BTX Inhibition [2]: 35
Uptake_5-HT, rat, 1 μM, % inhibition [3]: 38%

CCOc1ccc(NC(=S)N2CCC3(CC2)NC(CCSC)C(=O)N3Cc2ccc(F)cc2)cc1 (stereo not drawn) [Example 200, 1-(4-Fluorobenzyl)-3-(2-methylsulfanylethyl)-2-oxo-1,4,8-triazaspiro[4,5]decan-8-thiocarboxylic acid (4-ethoxy-benzol)amide]
BTX Inhibition [2]: 30
Uptake_5-HT, rat, 1 μM, % inhibition [3]: 30%

CC(=O)c1cccc(NC(=S)N2CCC3(CC2)NC(Cc2ccccc2)C(=O)N3Cc2ccccc2F)c1 (stereo not drawn) [Example 201, 3-Benzyl-1-(2-fluorobenzyl)-2-oxo-1,4,8-triazaspiro[4,5]decan-8-thiocarboxylic acid (3-acetylbenzol)amide]
BTX Inhibition [2]: 63
Uptake_5-HT, rat, 1 μM, % inhibition [3]: 54%

CN1C(=O)C(Cc2ccccc2)NC12CCN(C(=O)NC1CCCCC1)CC2 (stereo not drawn) [Example 202, 3-Benzyl-1-methyl-2-oxo-1,4,8-triazaspiro[4,5]decan-8-carboxylic acid cyclohexylamide]
BTX Inhibition [2]: 56
inhibition at 1 µM [3]: 34%

COC(=O)c1ccc(CN2C(=O)C(C(C)C)NC23CCN(C(=O)NC2CCCCC2)CC3)cc1 (stereo not drawn) [Example 206, Methyl 4-(8-cyclohexylcarbamoyl-3-isopropyl-2-oxo-1,4,8-triazaspiro[4,5]dec-1-ylmethyl)benzoate]
Uptake (NA), rat, 10 μM, % inhibition [1]: 39%

CCCCN1C(=O)C(CCSC)NC12CCN(C(=O)Nc1ccccc1)CC2 (stereo not drawn) [Example 207, 1-Butyl-3-(2-methylsulfanylethyl)-2-oxo-1,4,8-triazaspiro[4,5]decan-8-carboxylic acid benzolamide]
BTX Inhibition [2]: 35
Uptake_5-HT, rat, 1 μM, % inhibition [3]: 39%

CCCCN1C(=O)C(CCSC)NC12CCN(C(=O)Nc1ccc(OCC)cc1)CC2 (stereo not drawn) [Example 221, 1-Butyl-3-(2-methylsulfanylethyl)-2-oxo-1,4,8-triazaspiro[4,5]decan-8-carboxylic acid (4-ethoxy-benzol)amide]
BTX Inhibition [2]: 44
Uptake_5-HT, rat, 1 μM, % inhibition [3]: 47%

COC(=O)c1ccc(CN2C(=O)C(C(C)C)NC23CCN(C(=O)Nc2cccc(OC)c2)CC3)cc1 (stereo not drawn) [Example 223, Methyl 4-[3-isopropyl-8-(3-methoxy-benzolcarbamoyl)-2-oxo-1,4,8-triazaspiro[4,5]dec-1-ylmethyl]-benzoate]
Uptake (NA), rat, 10 μM, % inhibition [1]: 31%

CCCCN1C(=O)C(CCSC)NC12CCN(C(=O)Nc1ccc(Cl)c(C(F)(F)F)c1)CC2 (stereo not drawn) [Example 227, 1-Butyl-3-(2-methylsulfanylethyl)-2-oxo-1,4,8-triazaspiro[4,5]decan-8-carboxylic acid (4-chloro-3-trifluoromethylbenzol)amide]
BTX Inhibition [2]: 85
Uptake_5-HT, rat, 1 μM, % inhibition [3]: 58%

O=C(Nc1cc(F)ccc1F)N1CCC2(CC1)NC(Cc1ccccc1)C(=O)N2Cc1ccccc1F (stereo not drawn) [Example 230, 3-Benzyl-1-(2-fluorobenzyl)-2-oxo-1,4,8-triazaspiro[4,5]decan-8-carboxylic acid (2,5-difluorobenzol)amide]
BTX Inhibition [2]: 78
Uptake_5-HT, rat, 1 μM, % inhibition [3]: 63%

O=C(NCc1ccc(Cl)c(Cl)c1)N1CCC2(CC1)NC(Cc1ccccc1)C(=O)N2Cc1ccccc1F (stereo not drawn) [Example 233, 3-Benzyl-1-(2-fluorobenzyl)-2-oxo-1,4,8-triazaspiro[4,5]decan-8-carboxylic acid 3,4-dichlorobenzylamide]
BTX Inhibition [2]: 85
inhibition at 1 µM [3]: 44%

CSCCC1NC2(CCN(C(=O)Nc3cccc(C(C)=O)c3)CC2)N(Cc2ccccc2C#N)C1=O (stereo not drawn) [Example 234, 1-(2-Cyanobenzyl)-3-(2-methylsulfanylethyl)-2-oxo-1,4,8-triazaspiro[4,5]decan-8-carboxylic acid (3-acetylbenzol)amide]
BTX Inhibition [2]: 31
Uptake_5-HT, rat, 1 μM, % inhibition [3]: 45%

CCOC(=O)c1ccc(NC(=O)N2CCC3(CC2)NC(Cc2ccccc2)C(=O)N3Cc2ccccc2F)cc1 (stereo not drawn) [Example 235, Ethyl 4-{[3-benzyl-1-(2-fluorobenzyl)-2-oxo-1,4,8-triazaspiro[4,5]decan-8-carbonyl]-amino}-benzoate]
BTX Inhibition [2]: 77
inhibition at 1 µM [3]: 65%

CSCCC1NC2(CCN(C(=O)Nc3ccc(OC(F)(F)F)cc3)CC2)N(Cc2ccc(F)cc2)C1=O (stereo not drawn) [Example 237, 1-(4-Fluorobenzyl)-3-(2-methylsulfanylethyl)-2-oxo-1,4,8-triazaspiro[4,5]decan-8-carboxylic acid (4-trifluoromethoxy-benzol)amide]
BTX Inhibition [2]: 87
Uptake_5-HT, rat, 1 μM, % inhibition [3]: 39%

O=C(NC1CCCCC1)N1CCC2(CC1)NC(Cc1ccccc1)C(=O)N2Cc1ccccc1F (stereo not drawn) [Example 238, 3-Benzyl-1-(2-fluorobenzyl)-2-oxo-1,4,8-triazaspiro[4,5]decan-8-carboxylic acid cyclohexylamide]
BTX Inhibition [2]: 73
inhibition at 1 µM [3]: 43%

CSCCC1NC2(CCN(C(=O)NCCc3ccccc3)CC2)N(Cc2ccc(F)cc2)C1=O (stereo not drawn) [Example 239, 1-(4-Fluorobenzyl)-3-(2-methylsulfanylethyl)-2-oxo-1,4,8-triazaspiro[4,5]decan-8-carboxylic acid phenethylamide]
BTX Inhibition [2]: 69
inhibition at 1 µM [3]: 36%

CSCCC1NC2(CCN(C(=O)Nc3cccc(F)c3)CC2)N(Cc2ccc3ccccc3c2)C1=O (stereo not drawn) [Example 240, 3-(2-Methylsulfanylethyl)-1-naphthalin-2-ylmethyl-2-oxo-1,4,8-triazaspiro[4,5]decan-8-carboxylic acid (3-fluorobenzol)amide]
BTX Inhibition [2]: 78
Uptake_5-HT, rat, 1 μM, % inhibition [3]: 63%

COC(=O)c1ccc(CN2C(=O)C(C(C)C)NC23CCN(C(=O)Nc2ccc(Cl)c(C(F)(F)F)c2)CC3)cc1 (stereo not drawn) [Example 241, Methyl 4-[8-(4-chloro-3-trifluoromethylbenzolcarbamoyl)-3-isopropyl-2-oxo-1,4,8-triazaspiro[4,5]dec-1-ylmethyl]-benzoate]
BTX Inhibition [2]: 78
Uptake_5-HT, rat, 1 μM, % inhibition [3]: 31%

COc1ccc(OC)c(NC(=O)N2CCC3(CC2)NC(CCSC)C(=O)N3Cc2cccc(C#N)c2)c1 (stereo not drawn) [Example 242, 1-(3-Cyanobenzyl)-3-(2-methylsulfanylethyl)-2-oxo-1,4,8-triazaspiro[4,5]decan-8-carboxylic acid (2,5-dimethoxy-benzol)amide]
BTX Inhibition [2]: 46
Uptake_5-HT, rat, 1 μM, % inhibition [3]: 30%

CCOc1ccc(NC(=O)N2CCC3(CC2)NC(CCSC)C(=O)N3Cc2ccc(F)cc2)cc1 (stereo not drawn) [Example 243, 1-(4-Fluorobenzyl)-3-(2-methylsulfanylethyl)-2-oxo-1,4,8-triazaspiro[4,5]decan-8-carboxylic acid (4-ethoxy-benzol)amide]
BTX Inhibition [2]: 48
Uptake_5-HT, rat, 1 μM, % inhibition [3]: 40%

Ethyl[3-b-8-(3-fluorobenzolcarbamoyl)-2-oxo-1,4,8-triazaspiro[4,5]dec-1-yl]-acetate [Example 245]
BTX Inhibition [2]: 31
Uptake_5-HT, rat, 1 μM, % inhibition [3]: 51%
